Assay results published in US20120115742A1, “METHODS FOR IDENTIFICATION” (Cambridge Enterprise Limited, priority 2009, published 2012).

Experiments:
fetal rat pituicytes = assay: Rat pituicyte GH suppression assay; format: cell-based; details: Table 3; suppression compared to vehicle
Text: (§1) Two different assays for “classical” sstr2 functions were adopted: (1) cultured foetal rat pituitary cells secreted growth hormone which is inhibited by sstr2 agonists in a dose-dependent fashion and (2) selected glucose-sensitive sub-clones of the human Panc-1 cell line secrete insulin which is inhibited by sstr2 agonists in a dose-dependent fashion.
Methods: Cultures of fetal rat pituicytes were established exactly as previously described (Murray et al. (2004) J. Clin. Endocrinol. Metab. 89:3027-32) by enzymatic dispersion. After 48 hrs in low glucose DMEM plus 10% FCS, cells in 48 well plates (5×10^4 cells per well) were washed for 4 hrs in serum-free DMEM and then incubated with test agents at various concentrations for a further 24 hrs in serum-free DMEM. At the end of this period, the conditioned medium was harvested, any cell debris removed by centrifugation and assayed for […] using a commercially available ELISA (Linco; cat# EZRMGH-45K) in accordance with the manufacturer's instructions.
(§2) Results were reported as the mean SD, expressed as the fold change from cells in the presence of vehicle only.

[1] = test system: rat peripheral blood leukocytes; assay: Rat chemokine-induced PBMC migration assay; format: cell-based
Experimental: Similarly, where human Panc-2H4 cells are used to determine the effect of agents on classical sstr2 targets, the result is compared with the effect of the same agents on chemokine-induced migration of human THP-1 cells. […] For this reason, the ratio of “classical” to “BSCI” activity in Table 3 is calculated separately for rat and human.

Panc-2H4 cells = assay: Human Panc-2H4 insulin suppression assay; format: cell-based
Text: as §1
Glucose-sensitive sub-clones of the human Panc-1, a cell line derived from a pleiomorphic epithelioid carcinoma of the exocrine pancreas, were obtained essentially as described by Hamil et al. (2008) Biomed. Sci. Instrum. 44:441-6. Briefly, Panc-1 cells were subcultured in 24 well plates, and the medium was supplemented with an additional 5% glucose. […] The resulting sub-lines were then tested for glucose sensitivity by preparing wells of a 96-well plate (5×10^4 cells per well) which were then exposed to cultured medium containing a range of glucose concentrations (low glucose DMEM, DMEM, DMEM+1% glucose, DMEM+2.5% glucose and DMEM+5% glucose). After 24 hrs incubation, the conditioned medium was collected and assayed for insulin secretion by ELISA (Linco; cat# EZHI-14K) in accordance with the manufacturer's instructions. […] Further 96 well plates were prepared using Panc-2H4 (5×10^4 cells per well) in DMEM. After 24 hrs, the medium was switched to DMEM+5% glucose containing various test agents at various concentrations (triplicate wells per condition). After a further 24 hrs, the conditioned medium was harvested and the concentration of insulin was determined by ELISA as described above.
as §2

TNF-alpha = assay: Sub-lethal endotoxemia model, serum TNF-alpha after LPS; format: in vivo, mouse; details: dose-dependent; BN83250 s.c., valerolactam oral gavage
Experimental: We selected the sub-lethal endotoxemia model in mouse, because this has been well characterised in our laboratory (see for example Fox et al. (2002) J. Med. Chem. 45:360-70; Fox et al. (2005) J. Med. Chem. 48:867-74). The extent of systemic inflammation in response to a single intraperitoneal injection of bacterial lipopolysaccharide (LPS) can be estimated by measuring serum TNF-alpha 2 hours post challenge.
Methods: Mice (CD1 strain; adult males; 6 per group) were treated with BSCI (in an appropriate vehicle) or with vehicle alone by an appropriate route. […] Simultaneously, one set of mice at each BSCI concentration received BIM 23627 at 4 mg/animal (120 mg/kg) by sub-cutaneous injection (a treatment condition known to suppress classical sstr2-mediated signalling, such as GH release, in rats; Tulipano et al. (2002) 143:1218-24). Between 30 mins and 1 hour after dosing (a period when a maximal plasma concentration of BSCI has been achieved), the inflammatory challenge was elicited by intraperitoneal injection of 750 μg of LPS (Sigma; L4130 lot#024K4077; 900,000 EU/mg).
After a further 2 hours, the animals were sacrificed by CO2 asphyxiation, and blood was drawn by cardiac puncture. Serum was prepared by conventional methods, and the level of TNF-alpha in serum was measured using an ELISA (R&D Systems; Murine Quantikine code# MTA00) performed in accordance with the manufacturer's instructions.

THP-1 cells = assay: MCP-1 induced THP-1 cell migration (Transwell/ChemoTx)
Experimental: Leukocyte migration was measured using the 96-well format micro Transwell® assay system from Neuroprobe (Gaithersburg, Md., USA). In principle, this assay consists of two chambers separated by a porous membrane. The chemoattractant is placed in the lower compartment and the cells are placed in the upper compartment.
First, the cell suspension to be placed in the upper compartment was prepared. The THP-1 cells were pelleted by centrifugation (770×g; 4 mins) and washed with Geys Balanced Salt Solution with 1 mg/ml BSA (GBSS+BSA). This wash was then repeated, and the cells re-pelleted before being resuspended in a small volume of GBSS+BSA for counting, for example using a standard haemocytometer.
This ensured that there were 100,000 THP-1 cells in each 25 μl of the solution to be placed in the upper chamber of the plate.
To the third pot, GBSS+BSA plus vehicle as appropriate was added so that the volumes in three pots are equal, acting as a control.
Next, the chemoattractant solution to be placed in the lower compartment was prepared. […] This solution was divided into three pots, as for the cell suspension. To one pot, the BSCI was added to the same final concentration as was added to the cell suspension, in the second pot the BSCI and the sstr2 antagonist were both added at the same concentration as previously added to the cell suspension, while to the remaining pot GBSS+BSA plus vehicle as appropriate was added so that the volumes in the three pots were equal.
Once the chemoattractant solutions for the lower wells and cell solutions for the upper chambers were prepared, the migration chamber was assembled. 29 μl of the appropriate chemoattractant solution was placed into the lower well of the chamber. Assays were performed with at least triplicate determinations of each condition. Once all the lower chambers were filled, the porous membrane was applied to the chamber in accordance with the manufacturer's instructions. Finally, 25 μl of the appropriate cell solution was applied to each upper chamber. A plastic lid was placed over the entire apparatus to prevent evaporation.
The assembled chamber was incubated at 37° C., 5% CO2, for 2 hours.
At the end of the incubation, the liquid cell suspension was gently removed from the upper chamber, 20 μl of ice-cold 20 mM EDTA in PBS was added to the upper chamber, and the apparatus was incubated at 4° C. for 15 mins. This procedure caused any cells adhering to the underside of the membrane to fall into the lower chamber.
After this incubation the filter was carefully flushed with GBSS+BSA to wash off the EDTA, and then the filter was removed.
The number of cells migrated into the lower chamber under each condition can then be determined by a number of methods, including direct counting, labelling with fluorescent or radioactive markers or through the use of a vital dye. Typically, we utilised the vital dye MTT. 3 μl of stock MTT solution were added to each well, and then the plate was incubated at 37° C. for 1-2 hours during which time dehydrogenase enzymes within the cells converted the soluble MTT to an insoluble blue formazan product that could be quantified spectrophotometrically.
In parallel, an 8-point standard curve was set up. Starting with the number of cells added to each upper chamber (100,000) and going down in 2-fold serial dilutions in GBSS+BSA, the cells were added to a plate in 25 with 3 μl of MTT stock solution added. The standard curve plate was incubated along side the migration plate. At the end of this incubation, the liquid was carefully removed from the lower chambers, taking care not to disturb the precipitated formazan product.
The MCP-1 stimulated migration was determined by subtracting the average number of cells that reached the lower compartment in wells where no MCP-1 was added from the average number of cells that reached the lower compartment where MCP-1 was present at 25 ng/ml.

Jurkat-D3B cells = assay: SDF-1α induced migration of Jurkat-D3B cells expressing sstr2; format: cell-based, human
Experimental: Methods: Total mRNA was prepared from Panc-1 cells (a human pancreas cell line which is well known to express high levels of sstr2) using the RNAqueous 4PCR kit (Ambion, Cat code #1914) in accordance with the manufacturer's instructions. The mRNA was then reverse transcribed (using the RETROscript kit; Ambio) to yield a cDNA preparation. A full length cDNA of the sstr2 gene was then obtained by PCR (using a Peltier PTC-200 thermal cycler using the following cycle times and conditions: 94° C. for 2 min, followed by 30 cycles of 94° C., for 30 sec, 55° C. for 30 sec, 72° C. for 1 min and finally 72° C. for 10 min), and isolated by preparative gel electrophoresis. The sequence of the sstr2 cDNA was confirmed by sequencing. The sstr2 cDNA was treated with EcoRI and Xhol to generate sticky ends, which allowed directional cloning into the polylinker of the plasmid pcDNA3.1+ (Invitrogen) followed by ligation ([…] ligation reactions were run with 400 T4 DNA ligase (New England Biolabs) and the maximal amounts of DNA with an insert:plasmid ratio of 3:1 in ligase buffer incubated overnight at 13° C.). […]
A number of individual cell lines were obtained in this way, which expressed significant levels of sstr2 on the cell surface, detected by flow cytometry using the human-sstr2 antibody (Sigma, 50694; see Example 3 for details of the flow cytometry protocol used). […]

Q: Which “Rat pituicyte GH suppression assay Max effect” value (fetal rat pituicytes) does the source give for CC(C)(C)C(=O)N[C@H]1CCCNC1=O [Valerolactam, (S)-3-(2′2′-dimethylpropionoylamino)-tetrahydropyridin-2-one] here?
A: The value was 61%.

Q: And the ““Classical”:“BSCI” potency ratio, Rat” value ([1]; PBMC migration ED50 versus pituicyte GH ED50)?
A: Its value is 0.0009.

Q: What about the “Rat chemokine-induced PBMC migration assay Max effect” value ([1]; Table 3) of the same compound?
A: Its value is 100%.

Q: What about the EC50 (Panc-2H4 cells; Table 3, read-out: Human Panc-2H4 insulin suppression assay ED50) of the same compound?
A: The EC50 was greater than 1000 nM.

Q: What about the “Human Panc-2H4 insulin suppression assay Max effect” value (Panc-2H4 cells; Table 3, suppression compared to vehicle) of the same compound?
A: The value was less than 10%.

Q: And the “inhibition of insulin secretion by Panc-2H4” value (Panc-2H4 cells; highest concentrations tested)?
A: The value was “None of these agents inhibited insulin secretion”.

Q: What about the “inhibition of LPS-induced systemic inflammation” value (TNF-alpha) of the same compound?
A: Its value is “dramatically inhibited”.

Q: And the “potency relative to BN83253” value (THP-1 cells; MCP-1 induced THP-1 migration, FIG. 5 versus FIG. 4)?
A: Its value is 20-50 fold.

Q: What about the ““Classical”:“BSCI” potency ratio, Human” value (THP-1 cells; THP-1 migration ED50 versus Panc-2H4 insulin ED50) of the same compound?
A: Its value is less than 0.00005.

Q: And the “Human chemokine-induced THP-1 migration assay Max effect” value (THP-1 cells; Table 3)?
A: Its value is 100%.

Q: And the “sensitivity of Jurkat-D3B migration” value (Jurkat-D3B cells)?
A: Its value is “sensitive to inhibition”.
